This data set in a line: Equilibrium solubility in aqueous buffers. It is filed as physicochemical. The note with it: thermodynamic from solid, LC-MS/MS. The method, then: The equilibrium solubility of crystalline compound (1) and crystalline compound (2) was measured in various aqueous buffers. The pH 4.0 and pH 5.0 buffers were prepared by combining 50 mL of 0.2 M potassium biphthalate with 150 mL of H2O, and then adjusting to pH 4.0 or pH 5.0 with 10 N HCl. The pH 6.0 buffer was prepared by combining 50 mL of 0.2 M KH2PO4 with 150 mL of H2O, and then adjusting to pH 6.0 with 10 N NaOH. The pH 7.4 buffer was prepared by combining 50 mL of 0.2 M KH2PO4 with 150 mL of H2O, and then adjusting to pH 7.4 with 10 N NaOH. At least 1 mg of powder for each compound was combined with 1 mL of each buffer to make a saturated mixture. The samples were shaken overnight on a Thermomixer® at room temperature. The samples were then passed through a […] PTFE syringe filter. The filtrate was sampled and diluted in duplicate as appropriate into a mixture of 1:1 buffer:acetonitrile (ACN) prior to analysis. All samples were assayed by LC-MS/MS using electrospray ionization against standards prepared in a mixture of 1:1 assay buffer:ACN. Standard concentrations ranged from 1.0 μM to 0.3 nM. The samples were analyzed by LCMS using a Waters Acuity® UPLC BEH Phenyl 30×2.1 mm, 1.7 μm liquid chromatography column and a PE Sciex® API 4000 mass spectrometer equipped with a Turbo Ionspray.

Values after ≈ are worked out from the molar mass of the structure shown.

In general, solubility refers to the concentration that dissolves in the medium under given conditions. High values mean much dissolved substance, low ones little dissolved substance.

Regarding `O=C(Nc1ccc(CN2CCOCC2)cc1)c1ccc(Cl)cc1` [Crystalline Compound (2), 4-chloro-N-(4-(morpholinomethyl)phenyl)benzamide], where the note is “aqueous potassium phosphate (KH2PO4) buffer, aqueous buffer pH 7.4, shaken overnight at room temperature”, the solubility was found to be 0.0125 mM (≈ 4.14 µg/mL). In other words, the double-digit micromolar range.

Compound `Cl.O=C(Nc1ccc(CN2CCOCC2)cc1)c1ccc(Cl)cc1` [Crystalline Compound (1), 4-chloro-N-(4-(morpholinomethyl)phenyl)benzamide hydrochloride] showed a solubility (aqueous potassium biphthalate buffer, aqueous buffer pH 4.0, shaken overnight at room temperature) of 12.5 mM; a solubility (aqueous potassium biphthalate buffer, aqueous buffer pH 5.0, shaken overnight at room temperature) of 10.2 mM; a solubility (aqueous potassium phosphate (KH2PO4) buffer, aqueous buffer pH 6.0, shaken overnight at room temperature) of 8.17 mM.

These data come from patent publication US12116353B1, “Crystalline chloro-n-(4-(morpholinomethyl)phenyl)benzamide and crystalline hydrochloride salt” (GEN1E LIFESCIENCES INC., priority 2024, dated 2024).
